In publication PMC8943889, “Synthetic studies with the brevicidine and laterocidine lipopeptide antibiotics including analogues with enhanced properties and in vivo efficacy” (Chemical Science, 2022):
Converted amounts (≈) assume the structure as drawn. Where two headings read alike, the source gives them in different places. Positions of bridges follow the written chain, without caps; N, C: chain ends. Non-standard residues stand in square brackets, D forms with d. Residues, ends and D or L forms follow the SMILES beside them. *: point of attachment. Octanoyl(7-Me) = CC(C)CCCCCC(=O)*; dOrn = NCCC[C@@H](N)C(=O)O; Orn = NCCC[C@H](N)C(=O)O

Legend:
Format in all cases: cell-based
P. aeruginosa ATCC 27853 = test system: P. aeruginosa ATCC 27853
Procedure: (§1) Minimum inhibitory concentrations (MICs) were determined by broth microdilution according to CLSI guidelines in triplicate. Blood agar plates were inoculated with glycerol stocks of E. coli ATCC 25922, E. coli MCR-1 (clinical isolate from Utrecht Medical Centre, NL), E. coli EQAS MCR-2 (clinical isolate from Wageningen University and Research, NL), K. pneumoniae ATCC 11228, K. pneumoniae ATCC 13883, K. pneumonia 2048 (clnical isolate from Vrije Universiteit Amsterdam Medical Centre, NL), K. pneumonia JS-123 (clinical isolate from Utrecht Medical […]
(§2) (clinical isolate from Rijksinstituut voor Volksgezondheid en Milieu, NL), A. baumannii MDR (clinical isolate from Vrije Universiteit Amsterdam Medical Centre, NL), P. aeruginosa ATCC 27853, P. aeruginosa PAO1, P. aeruginosa NRZ-03961 (Reference strain from Das Nationale Referenzzentrum für gramnegative Krankenhauserreger, DE), P. aeruginosa M-120 (clinical isolate from Leiden University Medical Centre, NL) and S. aureus USA300 (clinical isolate from Texas Children's Hospital, USA). E. coli 25922 MCR1 was grown on LB agar supplemented with kanamycin. The inoculated agar plates were then incubated for 16 h at 37°C . Individually grown colonies were subsequently used to inoculate 3 mL aliquots of TSB that were then incubated at 37°C with shaking at 220 rpm. In parallel, the lipopeptide antibiotics to be assessed were serially diluted with Mueller-Hinton broth (MHB) in polypropylene 96-well plates (50 µL in each well).
(§3) Once the OD600 of the bacterial suspensions reached 0.5, the bacteria were diluted with MHB (final concentration 2 × 10^5 CFU mL−1) and added to the microplates containing the test compounds (50 µL to each well, final volume: 100 µL). The well-plates were sealed with an adhesive membrane and after 16 h of incubation at 37°C with shaking at 220 rpm the wells were visually inspected for bacterial growth. MIC values reported are based on three technical replicates and defined as the lowest concentration of the compound that prevented visible growth of bacteria. […]

P. aeruginosa PAO1 = test system: P. aeruginosa PAO1
Procedure: as §1, §2, §3

A. baumannii 2018-006 = test system: A. baumannii 2018-006
Procedure: as §1, §2, §3

K. pneumoniae ATCC 11228 = test system: K. pneumoniae ATCC 11228
Procedure: as §1, §2, §3

P. aeruginosa M-120 = test system: P. aeruginosa M-120
Procedure: as §1, §2, §3

E. coli ATCC 25922 MCR-1 = details: Ec ATCC 25922 MCR-1; broth microdilution (CLSI), MHB, 16 h 37 °C, three technical replicates
Procedure: as §1, §2, §3

K. pneumoniae JS-123 = test system: K. pneumoniae JS-123
Procedure: as §1, §2, §3

E. coli ATCC 25922 = test system: E. coli ATCC 25922
Procedure: as §1, §2, §3

K. pneumoniae ATCC 13883 = test system: K. pneumoniae ATCC 13883
Procedure: as §1, §2, §3

P. aeruginosa NRZ-03961 = test system: P. aeruginosa NRZ-03961
Procedure: as §1, §2, §3

A. baumannii ATCC 17978 = test system: A. baumannii ATCC 17978
Procedure: as §1, §2, §3

A. baumannii MDR = details: Ab MDR; broth microdilution (CLSI), MHB, 16 h 37 °C, three technical replicates
Procedure: as §1, §2, §3

E. coli EQAS MCR-2 = details: Ec EQAS MCR-2; broth microdilution (CLSI), MHB, 16 h 37 °C, three technical replicates
Procedure: as §1, §2, §3

A. baumannii ATCC 17961 = test system: A. baumannii ATCC 17961
Procedure: as §1, §2, §3

K. pneumoniae 2048 = test system: K. pneumoniae 2048
Procedure: as §1, §2, §3

[1] = test system: E. coli MCR-1 (clinical isolate); details: Ec MCR-1; broth microdilution (CLSI), MHB, 16 h 37 °C, three technical replicates
Procedure: as §1, §2, §3

S. aureus USA300 = test system: S. aureus USA300
Procedure: as §1, §2, §3

Compound	MIC (P. aeruginosa ATCC 27853; ATCC 27853, 16 h)	MIC (P. aeruginosa PAO1; PAO1, 16 h)	MIC (A. baumannii 2018-006; 2018-006, 16 h)	MIC (K. pneumoniae ATCC 11228; ATCC 11228, 16 h)	MIC (P. aeruginosa M-120; M-120, 16 h)	MIC (K. pneumoniae JS-123; JS-123, 16 h)	MIC (E. coli ATCC 25922; ATCC 25922, 16 h)	MIC (K. pneumoniae ATCC 13883; ATCC 13883, 16 h)	MIC (P. aeruginosa NRZ-03961; NRZ-03961, 16 h)	MIC (A. baumannii ATCC 17978; ATCC 17978, 16 h)	MIC (A. baumannii MDR)	MIC (E. coli EQAS MCR-2)	MIC (A. baumannii ATCC 17961; ATCC 17961, 16 h)	MIC (K. pneumoniae 2048; 2048, 16 h)	MIC [1]	MIC (S. aureus USA300; USA300, 16 h)	also measured
CC[C@H](C)[C@@H]1NC(=O)[C@@H](NC(=O)[C@H](Cc2c[nH]c3ccccc23)NC(=O)[C@@H](CCCN)NC(=O)CNC(=O)[C@H](CCCN)NC(=O)[C@@H](CCCN)NC(=O)[C@@H](Cc2c[nH]c3ccccc23)NC(=O)[C@@H](Cc2ccc(O)cc2)NC(=O)[C@@H](CO)NC(=O)CCCCCC(C)C)[C@@H](C)NC(=O)CNC(=O)CNC(=O)[C@H](CC(N)=O)NC1=O [MeDap9-Lat (8), MeDap9-laterocidine]	0.5 µg/mL (≈ 0.312 µM)	2 µg/mL (≈ 1.25 µM)	4 µg/mL (≈ 2.49 µM)	1 to 2 µg/mL	1 µg/mL (≈ 0.623 µM)	0.5 µg/mL (≈ 0.312 µM)	1 µg/mL (≈ 0.623 µM)	1 to 2 µg/mL	2 µg/mL (≈ 1.25 µM)	2 µg/mL (≈ 1.25 µM)	4 µg/mL (≈ 2.49 µM)	0.5 µg/mL (≈ 0.312 µM)	2 µg/mL (≈ 1.25 µM)	2 µg/mL (≈ 1.25 µM)	0.5 µg/mL (≈ 0.312 µM)	32 µg/mL (≈ 20 µM)	MIC (E. coli ATCC 25922 MCR-1): 1 µg/mL (≈ 0.623 µM)
CC[C@H](C)[C@@H]1NC(=O)[C@@H](NC(=O)[C@H](Cc2c[nH]c3ccccc23)NC(=O)[C@@H](CCCN)NC(=O)CNC(=O)[C@H](CCCN)NC(=O)[C@@H](CCCN)NC(=O)[C@@H](Cc2c[nH]c3ccccc23)NC(=O)[C@@H](Cc2ccc(O)cc2)NC(=O)[C@@H](CO)NC(=O)CCCCCC(C)C)COC(=O)CNC(=O)CNC(=O)[C@H](CC(N)=O)NC1=O [Ser9-Lat (4), Ser9-Laterocidine] ({Octanoyl(7-Me)}-[dS][dY][dW][dOrn][Orn]G[dOrn]WSINGG; ester 9-C)	0.5 to 1 µg/mL	2 µg/mL (≈ 1.26 µM)	4 µg/mL (≈ 2.51 µM)	1 to 2 µg/mL	1 µg/mL (≈ 0.629 µM)	0.5 µg/mL (≈ 0.314 µM)	0.5 µg/mL (≈ 0.314 µM)	1 to 2 µg/mL	1 to 2 µg/mL	2 µg/mL (≈ 1.26 µM)			4 µg/mL (≈ 2.51 µM)	2 µg/mL (≈ 1.26 µM)		>64 µg/mL	
colistin [reference compound]											<0.25 µg/mL	4 µg/mL			2 to 4 µg/mL		MIC (P. aeruginosa ATCC 27853; Pa ATCC 27853, broth microdilution (CLSI), MHB, 16 h 37 °C, three technical replicates): <0.25 µg/mL; MIC (P. aeruginosa PAO1; Pa PAO1, broth microdilution (CLSI), MHB, 16 h 37 °C, three technical replicates): 0.25 to 0.5 µg/mL; MIC (A. baumannii 2018-006; Ab 2018-006, broth microdilution (CLSI), MHB, 16 h 37 °C, three technical replicates): <0.25 µg/mL; MIC (K. pneumoniae ATCC 11228; Kp ATCC 11228, broth microdilution (CLSI), MHB, 16 h 37 °C, three technical replicates): <0.25 µg/mL; MIC (P. aeruginosa M-120; Pa M-120, broth microdilution (CLSI), MHB, 16 h 37 °C, three technical replicates): <0.25 µg/mL; MIC (K. pneumoniae JS-123; Kp JS-123, broth microdilution (CLSI), MHB, 16 h 37 °C, three technical replicates): <0.25 µg/mL; MIC (E. coli ATCC 25922; Ec ATCC 25922, broth microdilution (CLSI), MHB, 2 × 10^5 CFU/mL, 16 h 37 °C, visual read-out, three technical replicates): 0.25 to 0.5 µg/mL; MIC (K. pneumoniae ATCC 13883; Kp ATCC 13883, broth microdilution (CLSI), MHB, 16 h 37 °C, three technical replicates): 0.25 µg/mL; MIC (P. aeruginosa NRZ-03961; Pa NRZ-03961, broth microdilution (CLSI), MHB, 16 h 37 °C, three technical replicates): 0.25 to 0.5 µg/mL; MIC (A. baumannii ATCC 17978; Ab ATCC 17978, broth microdilution (CLSI), MHB, 16 h 37 °C, three technical replicates): <0.25 µg/mL; MIC (A. baumannii ATCC 17961; Ab ATCC 17961, broth microdilution (CLSI), MHB, 16 h 37 °C, three technical replicates): <0.25 µg/mL; MIC (K. pneumoniae 2048; Kp 2048, broth microdilution (CLSI), MHB, 16 h 37 °C, three technical replicates): 0.5 to 1 µg/mL; MIC (S. aureus USA300; Sa USA300, broth microdilution (CLSI), MHB, 16 h 37 °C, three technical replicates): >64 µg/mL
